From a melting point compilation (Tetko et al.; mined from patent text by program, amines drawn as free bases though some values may be those of a salt)

Row | SMILES | melting point [°C]
1 | CSC(=N)N(c1ccccc1)c1ccccc1 | 104 to 106
2 | CC(C)(C)c1ccc(OCCCCCCCCCCC(Cl)(Cl)C(=O)O)cc1 | 56 to 57
3 | COC1(c2csc(S(=O)(=O)c3ccc4c(c3)CC/C4=N\O)c2)CCOCC1 | 144 to 145
4 | CC(=O)NS(=O)(=O)c1cc(C(=O)CCl)ccc1Cl | 177
5 | CCn1c(=O)c2conc2n(C)c1=O | 87 to 88
6 | CC(=O)OCC1OC(c2cnc(Cl)nc2Cl)C(OC(C)=O)C1OC(C)=O (configuration not stated) | 75 to 78
7 | Cn1cc(CC(NC(=O)CCS)C(=O)O)c2ccccc21 (racemic) | 115 to 117
8 | CC1(C)SC2C(NC(=O)C(NC(=O)CBr)c3ccccc3)C(=O)N2C1c1nnn[nH]1 (configuration not stated) | 128 to 135
9 | CC(C)Nc1nc2c(Cl)cccc2n1[C@H]1O[C@@H](CO)[C@H](O)[C@@H]1O | 225 to 227
10 | CCCN(Cc1ccc(-c2ccccc2-c2nnnn2C(c2ccccc2)(c2ccccc2)c2ccccc2)cc1)c1ncccc1C(=O)OCC | 129 to 131
11 | COC(=O)c1cccc2nc(SCCN3CCN(CC(=O)Nc4c(SC(C)C)cc(C)nc4SC(C)C)CC3)oc12 | 60 to 63
12 | O=C(NCC1CCCC1)c1ccc2cc[nH]c2c1 | 148 to 150
13 | CC1(C)COP(N(C2CC(C)(C)NC(C)(C)C2)C2CC(C)(C)NC(C)(C)C2)OC1 | 156
14 | O=C(CCCl)Nc1ccc(F)c(F)c1 | 76
15 | Cc1cc(Br)sc1-c1nc(-c2c(F)cccc2Cl)nn1C | 117 to 118
16 | CN1CCN(S(=O)(=O)NC(Cc2ccccc2)C(=O)O)CC1 (configuration not stated) | > 200
17 | C=CCN(CC=C)Cc1noc(-c2ncn3c2[C@@H]2CCN2C(=O)c2c(Cl)cccc2-3)n1 | 190 to 192
18 | NC(=O)CC(C(N)=O)n1cccc1 (configuration not stated) | 158 to 165
19 | CC(C)CN1C(=O)C(C)(C)C(=O)Nc2ccc(C#N)cc21 | 219 to 220
20 | CCCN1C(=O)C2(CC(C)C)CC(c3ccc([N+](=O)[O-])cc3)(C2)C1=O | 87 to 88
21 | CCOC(=O)N1CCN(C2=Nc3ccccc3Cc3nccn32)CC1 | 137 to 139
22 | CC(O)C(C)Sc1cc(C(C)(C)C)c(O)c(C(C)(C)C)c1 (configuration not stated) | 73
23 | CNC(=O)c1cnc2ccccc2c1-c1ccccn1 | 171 to 172
24 | CCCCOc1nccnc1C1(O)CN2CCC1CC2 (configuration not stated) | 107 to 108
25 | O=C1CCC2(CC2)C(=O)C1 | 116 to 118
26 | CS(=O)(=O)c1ccc(C(=O)c2cc(-c3ccncc3)c(N3CCOCC3)s2)cc1 | 128
27 | C[C@@H]1C(=O)C[C@H]2C[C@@H]1OO[C@@]2(C)/C=C\c1ccc(Cl)cc1 | 90

Row | SMILES | melting point [°C]
28 | Cc1c(C2=CCC(Cc3ccccc3)(N(C)C)CC2)[nH]c2ccc(F)cc12 (configuration not stated) | 62 to 65
29 | CCOC(=O)CCN(CC(N)=O)C(=O)Cn1cc(C)c(=O)[nH]c1=O | 207 to 208
30 | CCCOC(=O)c1c(C)nsc1NC(=O)NC | 191
31 | O=C(NCc1cccnc1)c1cnc(N2CCN(CC3CC3)C2=O)s1 | 190 to 192
32 | CC(C)(C)OC(=O)NC(CO)C(c1ccccc1)c1ccccc1 (configuration not stated) | 95 to 96
33 | COC(=O)c1ccc2oc(=S)[nH]c2c1 | 218 to 221
34 | CCOC(=O)C1=C(C)NC(CO)=C(C(=O)OCC)C1c1cccc([N+](=O)[O-])c1 (configuration not stated) | 141 to 142
35 | COC(=S)NS(=O)(=O)c1ccc(Cl)cc1 | 129 to 130
36 | CCCCCC1CCC(c2ccc(-c3cc(F)c(N)cc3F)cc2)CC1 (configuration not stated) | 68.3 to 70.4
37 | C#Cc1cnc2c(c1)C(=O)N(C)c1cccnc1N2CC | 117 to 118
38 | CC(C)(C)NC(=S)Nc1cc(F)cc(Cl)c1 | 135 to 137
39 | CCOC(=O)C(O)=Cc1ncc(Cc2ccc(F)cc2)s1 | 160 to 162
40 | C=C(C)C(=O)Oc1c(Cc2cc(C)cc(C(C)(C)C)c2O)cc(C)cc1C(C)(C)C | 144 to 146
41 | CC(C)CC1(CCCCCl)C(=O)Nc2ccccc21 (configuration not stated) | 124 to 125
42 | OCC1OC(n2c(Cl)nc3cc(Cl)c(Cl)cc32)C(O)C1F (configuration not stated) | 238
43 | CC(C)OC(=O)Nc1cccc2c1C(=O)C1(O)c3ccc(C(C)C)cc3OC21O (configuration not stated) | 200 to 202
44 | CCN(CC)C(=O)c1nc[nH]n1 | 173 to 174
45 | O=C(OCc1ccccc1)ON1C(=O)CC2(CCN(C(=O)OCc3ccccc3)CC2)C1=O | 114
46 | CS(=O)(=O)C1Cc2cc(Cl)ccc2C1O (configuration not stated) | 163
47 | Nc1c(Br)cc(Cl)cc1C(=O)c1ccccc1Cl | 100 to 101
48 | COc1cccc2c1CC1(CCCCC1)C2=O | 94 to 96
49 | O=C(Nc1cccnc1)N1CCc2cc(Cl)ccc21 | 204 to 205
50 | CC(C)(C)CCCOC1CCC2C3C(=O)C=C4CC(O[Si](C)(C)C(C)(C)C)CCC4(C)C3CCC12C (configuration not stated) | 155 to 156
51 | CCN(CC)C(=O)COC(=O)c1ccc(O)cc1 | 148 to 149
52 | N#Cc1ccc(CN2C(=O)C3(COc4cc5c(cc43)OCO5)c3ccccc32)o1 (configuration not stated) | 167 to 169
53 | Cn1c(=O)c2c(ncn2CCN2CCC(c3c[nH]c4ccccc34)CC2)n(C)c1=O | 201

The remaining lines, values ahead:

Row | melting point [°C] | SMILES
54 | 119 to 120 | CCOC(=O)CN(CCc1ccccc1)C(=O)[C@@H]1C[C@@H](SC(C)=O)CN1S(=O)(=O)c1ccc2ccccc2c1
55 | 122 to 125 | COc1cc2c(cc1OCc1ccccc1)C(Sc1ccccc1)(C(N)=CC#N)C2 (configuration not stated)
56 | 92 | Cc1ccc(C(=O)c2ccc3[nH]cc(C4CCN(C)CC4)c3c2)cc1
57 | 130 to 131 | COc1cccc(Sc2c(O)cc(-c3ccccc3)oc2=O)c1
58 | 126 to 127 | COCOCc1cccc(-c2ccc(C(=O)O)cc2)c1
59 | 221 to 223 | COc1cc(OC)c2c(=O)c(OC)c(-c3ccc(O)c(OC)c3)oc2c1
60 | 155 | CN1CCCc2cc(OC(=O)Nc3ccc(Br)cc3)ccc21
61 | 242 to 243 | CCOC(=O)c1cc2c3ccccc3[nH]c(=S)n2n1
62 | 126 to 128 | CS(=O)(=O)c1ccc(-c2c(-c3ccccc3)noc2C(F)F)cc1
63 | 122 to 124 | Clc1ccc(CN2CC=C(/C=C/c3ccc4c(c3)OCO4)CC2)cc1
64 | 125 to 127 | Clc1ccc([C@@]2(Cn3ccnc3)OC[C@H](COc3ccc4c(c3)CCN(CCCc3ccc(-c5ccccc5)cc3)C4)O2)c(Cl)c1 (racemic)
65 | 98 | CCN(CC)C(=O)Oc1nc(-c2ccc(C)cc2)cc2ccccc12
66 | 196 to 197 | CCOC(=O)c1cc2cc3[nH]c(=O)[nH]c3cc2[nH]1
67 | 187 to 189 | COc1ccc(COc2ccc3[nH]c4c([N+](=O)[O-])ccc(Cl)c4c(=O)c3c2)cc1
68 | 229 | CS(=O)(=O)N1CCN2C(=O)N(c3cc(Cl)cc(Cl)c3)C(=O)C2(Cc2ccc(Br)cc2)C1 (configuration not stated)
69 | 131 to 144 | Cc1cc(F)ccc1-c1nc(NCCNC(=O)Nc2cccc(F)c2)nc2c1ccc(=O)n2-c1c(F)cccc1F
70 | 128 to 130 | C#CC1N(C(=O)Oc2ccccc2)c2ccc(OCc3ccccc3[N+](=O)[O-])cc2C23OC12CCCC3=O (configuration not stated)
71 | 134 to 135 | CCCCCCc1ccc(-n2c(-c3ccc(C)cc3)cc(Br)c2-c2ccc(C)cc2)cc1
72 | 92 to 97 | FC(F)(F)c1ccc2c(C3CCN(CCCOc4cccc5[nH]ccc45)CC3)c[nH]c2c1
73 | 176 | O=C(NCc1ccc2c(c1)OCO2)c1ccc2[nH]c(=O)n(Cc3ccccc3)c(=O)c2c1
74 | 167 to 169 | CNS(=O)(=O)c1ccc(C=C2C(C)=C(CC(=O)OC)c3cc(OC)ccc32)cc1
75 | 189 to 193 | O=c1oc(-c2ccc(F)cc2)nc2cccc(F)c12

Row | melting point [°C] | SMILES
76 | 128 to 129 | Cc1nccn1-c1nc(-c2ccc(Cl)cc2)c(CCCO)o1
77 | 144 to 146 | Cn1cc(-c2ccc(Br)cc2)c(=O)c(-c2cccc(C(F)(F)F)c2)c1
78 | 73 to 75 | C=CCOC(=O)CCCOc1cc([N+](=O)[O-])c(CO)cc1OC
79 | 138 to 140 | CC(C)(C)c1ccc(Oc2ccc([N+](=O)[O-])cc2C(=O)Nc2ccccc2)cc1
80 | 171 to 172 | COc1ccc2[nH]ccc(=O)c2c1OCc1ccccc1
81 | 157 to 158 | Cc1cc(SCc2sc(-c3ccc(C(F)(F)F)cc3)nc2C)c2c(c1OCC(=O)O)CCO2
82 | 126 to 128 | Cc1ccccc1N1CCc2c(C)nc3c(C)cccc3c21
83 | 220 to 222 | O=C1CCC(N2Cc3c(OCc4ccc(C(=O)NCCN5CCCCC5)cc4)cccc3C2=O)C(=O)N1 (configuration not stated)
84 | 135 to 140 | COC(=O)C1=C(COCCn2c(C)nc(C)c2C)NC(C)=C(C(=O)Nc2ccccc2)C1c1ccccc1Cl (configuration not stated)
85 | 245 to 247 | COc1ccc2c(c1)C(=O)N(c1ccc3nc(C)ncc3c1)C2
86 | 196 to 199 | O=C(NCC(=O)N1c2ccccc2N(Cc2ccccc2)C(=O)[C@H]2CCC[C@H]21)c1ccncc1 (relative stereo)
87 | 208 to 209 | CC(C)(C)OC(=O)N1CCN(c2ccc(OCC3(C)CCn4cc([N+](=O)[O-])nc4O3)cc2)CC1 (configuration not stated)
88 | 184 to 186 | COc1cc2cc3c(Nc4ccc(Sc5nccn5C)c(Cl)c4)c(C#N)cnc3cc2cc1OCCN1CCN(C)CC1
89 | 105 to 107 | COc1ccc(C(=O)/C(=C\c2ccccc2)C(=O)OC(C)(C)C)c(O)c1
90 | 134 to 137 | O=[N+]([O-])c1cc([N+](=O)[O-])c(N(SC(Cl)(Cl)Cl)c2cc(C(F)(F)F)ccc2Cl)c(C(F)(F)F)c1
91 | 178 | O=c1ccc(-c2ccc(OC(F)(F)F)cc2)n[nH]1
92 | 192 | CS(=O)(=O)c1ccc(-c2ccc(Cl)nc2-c2ccc(F)cc2)cc1
93 | 147 to 150 | Nc1cc(C(c2cc(F)ccc2F)S(=O)(=O)c2ccc(Cl)cc2)c(Cl)cn1 (configuration not stated)
94 | 277 | CNc1nc(-c2ccccc2)c(-c2nc(N)nc(Nc3cccc([N+](=O)[O-])c3)n2)s1
95 | 253 to 254 | Cc1nc(-c2ccc3c(c2)c2cc(-c4ccc(Cl)cc4Cl)c(=O)n(C)c2n3C)cs1
96 | 185 to 187 | CCOC(=O)c1c(CN2C(=O)CN(C)C2=O)nc2sc3c(c2c1-c1ccc(OC)c(OC)c1)CCN(C(=O)c1ccccc1)C3
97 | 119 to 123 | CCCN(C)CCOc1ccc(-n2ccc(OCc3ccc(Cl)cn3)cc2=O)cc1
